Experimental data: patent publication US20100254928A1, “NOVEL COMPOSITION CONTAINING OZONIZED SURFACTANT” (priority 2007, published 2010)
Several values for one entry are separate records, joined by “and”; a condition that tells them apart may be missing. Equal values may be shown once.

Tests used:
[1] = test system: Sprague-Dawley female rats; assay: Single dose oral toxicity test; format: in vivo; design: key to General conditions, 3 hours after administration / General conditions, 1 hour after administration / General conditions, 2 hours after administration: D: diarrhea; LS: loose stool; RF: reddish feces; DL: decrease in locomotor activity; *: the result was observed at 4 hours after administration; settings: for rats that developed symptoms on the administration day: transient, resolved by the 2nd day
Protocol: In order to roughly determine the lethal dose of the ozonized surfactant used for the present invention, an acute single dose oral toxicity test was performed according to “OECD Guideline for Testing of Chemicals, Acute Oral Toxicity-Acute Toxic Class Method”, Revised Guideline 423, adopted on Mar. 22, 1996 and revised on Dec. 17, 2001) by administering the solution A described in Example 4 to 12 Sprague-Dawley [Ctr: CD (SD), SPF ] female rats. Rats were divided into 4 groups each consisting of 3 rats. For each rat, an appropriate liquid volume was calculated based on individual body weight so that the solution A in an amount equivalent to 300 mg/kg of the ozonized surfactant was administered to 2 groups (6 rats) and the solution in an amount equivalent to 2000 mg/kg was administered to the other 2 groups (6 rats), with the use of a gastric tube for rats. (These groups will be hereinafter referred to as 300 mg/kg administration groups and 2000 mg/kg administration groups, respectively.) Counting the administration day as the 1st day, general conditions of the rats were observed until the 15th day, and the number of dead individuals was counted. The general conditions of all the animals were observed once before administration, intermittently for 1 hour after administration, and subsequently about every hour until 3 hours (of some rats until 4 hours) after administration. Since the 2nd day, the observation was repeated daily.
In the table, D, LS, RF and DL mean diarrhea, loose stool, reddish feces and decrease in locomotor activity, respectively.

insects such as ants = assay: Repellent activity (Test Example 14); format: in vivo, pill bug; settings: 8 hours
Protocol: The repellent performance of the ozonized surfactant of the present invention was checked. […] In addition, 1 g of honey was instilled into the center. […] These specimens were placed on leaf mold in a flower bed, and the conditions were observed 8 hours later.

[2] = Temporal change in oxidizing property (iodine titration method); format: physicochemical; settings: 1% aqueous solution, 25° C., 700 days
Text: After deaerating the obtained aqueous ozonized surfactant solution to remove dissolved ozone gas by helium purging, the oxidizing property of the aqueous ozonized surfactant solution can be determined by the iodine titration method (see Non Patent Literature 1). Whether or not the aqueous ozonized surfactant solution maintains a function as a surfactant can be evaluated by checking whether or not frothing, which is a characteristic of surfactants, occurs when the solution is agitated or vibrated.
Meanwhile, oxygen was supplied from an oxygen cylinder into an ozonizer (ozonizer GR-RB made by Sumitomo Precision Products Co., Ltd.) at an oxygen flow rate of 0.3 L/min to ozonize the oxygen to produce ozone gas. Then, the ozone gas was dissolved in the above-described aqueous solution in a dissolving module (SEK model made by ERC Technology), and the aqueous solution was circulated at a flow rate of 1 L/min. […] Further, in 30 minutes, the concentration increased to 25 ppm (see FIG. 2). After deaerating the aqueous solution that had undergone about 30-minute ozone treatment to remove dissolved ozone gas by helium purging, oxidizing property of the aqueous solution was determined by the iodine titration method. As a result, the aqueous solution had oxidizing property, and frothing, which is a characteristic of surfactants, was observed. The results confirmed that ozonized Tween 80 had been produced. Further, a temporal change in the oxidizing property of the aqueous solution was determined by the iodine titration method at 25° C. for 20 days. As a result, the percentage of oxidizing property measured after 20 days to that measured just after preparation was 109%.
The solution A was diluted to a 1% aqueous solution, and a temporal change in the oxidizing property of the aqueous solution was determined by the iodine titration method at 25° C. for 700 days. As a result, the percentage of oxidizing property measured after 700 days to that measured just after preparation was 101%.

Escherichia coli = assay: Bactericidal activity test with variation of the period of action; format: cell-based
Protocol: (§1) In order to check the bactericidal activity of the ozonized surfactant, a bactericidal activity test was performed with variation of the period of action.
(§2) Developed colonies were scraped off and a bacterial solution of about 10^8 CFU/mL was prepared.
(§3) Into 50 mL centrifuging tubes, 10 mL each of 0.5% and 0.05% aqueous solutions of the ozonized surfactant obtained in Example 4 were separately poured. To each solution, 0.1 mL of sample bacterial solution was inoculated and mixed for a predetermined period of action at room temperature. To 10 mL of SCDLP bouillon medium (EIKEN CHEMICAL) of which the effectiveness as an inactivator had been confirmed beforehand, 0.1 mL of the resulting solution after a predetermined period of action was added for inactivation of bactericidal components. Then the bacteria count was measured. As a control test, the same operation was performed with the use of an unozonized surfactant or sterile purified water. A 10-fold serial dilution of each sample solution after inactivation was prepared. Each 1 mL of the undiluted and diluted sample solutions were separately mixed with about 20 mL of agar medium, and then cultured. After culturing, the number of colony forming units per 1 mL of each sample solution was counted.

Staphylococcus aureus = assay: as above; format: cell-based
Protocol: as §1, §2, §3

Pseudomonas aeruginosa = assay: as above; format: cell-based
Protocol: as §1, §2, §3

[3] = 300 mg/kg administration group (6 rats)
[4] = 2000 mg/kg administration group (6 rats)
[5] = 2000 mg/kg oral, per animal, — = no symptom, listed as solution A
[6] = Conc. 0.05%, period of action 10 min
[7] = Conc. 0.05%, period of action 30 min
[8] = Conc. 0.5%, period of action 5 min
[9] = Conc. 0.5%, period of action 10 min
[10] = Conc. 0.5%, period of action 30 min

## Ozonized POE (10 EO) oleyl ether [Example 4]
[1]; [3]
  Death until the 15th day: Death was not found
  rats that developed symptoms on the administration day: 1 rat
[1]; 300 mg/kg oral, per animal, — = no symptom
  General conditions, 3 hours after administration: LS*
[1]; 2-15 days, all 12 rats
  Decrease in locomotor activity (number of animals): 0
  Diarrhea or loose stool (number of animals): 0
  Reddish feces (number of animals): 0
[1]; [4]
  Death until the 15th day: Death was not found
  rats that developed symptoms on the administration day: 5 rats
[1]; [5]
  General conditions, 1 hour after administration: D, DL and D, RF and D (2×)
  General conditions, 2 hours after administration: D
  General conditions, 3 hours after administration: D* and LS and D (2×)
[1]; 300 and 2000 mg/kg, 15 days
  Body weight transition during the observation period: favorable
[1]; 1 hour, all 12 rats
  Decrease in locomotor activity (number of animals): 2
  Reddish feces (number of animals): 1
[1]; 1 hour, all 12 rats (300 and 2000 mg/kg)
  Diarrhea or loose stool (number of animals): 4
[1]; 2 hours, all 12 rats
  Decrease in locomotor activity (number of animals): 0
  Diarrhea or loose stool (number of animals): 3
  Reddish feces (number of animals): 0
[1]; 3 hours, all 12 rats
  Decrease in locomotor activity (number of animals): 0
  Diarrhea or loose stool (number of animals): 5
  Reddish feces (number of animals): 0
[1]; oral, rat
  LD50 cut-off value: infinite
  acute toxicity classification of the GHS: Category 5 or does not correspond to any of the acute toxicity categories
Insects such as ants; 2 mL of 1% aqueous solution on tissue paper with 1 g honey
  insects gathered on the specimen: did not gather at all
Insects such as ants; 2 mL of 10% aqueous solution on tissue paper with 1 g honey
  insects gathered on the specimen: did not gather at all
[2]
  percentage of oxidizing property measured after 700 days to that measured just after preparation: 101%
Escherichia coli; Conc. 0.05%, period of action 5 min, 0 min 3.8 × 10^6
  bacteria count: 4.8 × 10^6 CFU/mL
Escherichia coli; [6]
  bacteria count: <1 × 10^2 CFU/mL
Escherichia coli; [7]
  bacteria count: <1 × 10^2 CFU/mL
Escherichia coli; [8]
  bacteria count: <1 × 10^2 CFU/mL
Escherichia coli; [9]
  bacteria count: <1 × 10^2 CFU/mL
Escherichia coli; [10]
  bacteria count: <1 × 10^2 CFU/mL
Staphylococcus aureus; Conc. 0.05%, period of action 5 min, 0 min 8.2 × 10^6
  bacteria count: <1 × 10^2 CFU/mL
Staphylococcus aureus; [6]
  bacteria count: 1 × 10^2 CFU/mL
Staphylococcus aureus; [7]
  bacteria count: <1 × 10^2 CFU/mL
Staphylococcus aureus; [8]
  bacteria count: <1 × 10^2 CFU/mL
Staphylococcus aureus; [9]
  bacteria count: <1 × 10^2 CFU/mL
Staphylococcus aureus; [10]
  bacteria count: <1 × 10^2 CFU/mL
Pseudomonas aeruginosa; Conc. 0.05%, period of action 5 min, 0 min 4.5 × 10^6
  bacteria count: 1.5 × 10^2 CFU/mL
Pseudomonas aeruginosa; [6]
  bacteria count: <1 × 10^2 CFU/mL
Pseudomonas aeruginosa; [7]
  bacteria count: <1 × 10^2 CFU/mL
Pseudomonas aeruginosa; [8]
  bacteria count: <1 × 10^2 CFU/mL
Pseudomonas aeruginosa; [9]
  bacteria count: <1 × 10^2 CFU/mL
Pseudomonas aeruginosa; [10]
  bacteria count: <1 × 10^2 CFU/mL
